Source: US7192728B2, “Screening assays for agents that alter inhibitor of apoptosis (IAP) protein regulation of caspase activity” (The Burnham Institute, priority 1997, dated 2007)

What was measured:
[1] = test system: DEVD-pNA hydrolysis activity in 293 cell cytosolic extracts; assay: Cytochrome c/dATP-induced caspase activation (DEVD hydrolysis) in 293 cell cytosolic extracts; type: biochemical, human
[2] = test system: DEVD-pNA hydrolysis activity in Jurkat T cell cytosolic extracts; assay: Cytochrome c/dATP-induced caspase activation (DEVD-pNA hydrolysis) in Jurkat T cell cytosolic extracts; type: biochemical
Procedure: Cells were washed with ice cold buffer A (20 mM Hepes (pH 7.5), 10 mM KCl, 1.5 mM MgCl2, 1 mM EDTA, 1 mM DTT and 0.1 mM PMSF) and suspended in 1 vol buffer A, then incubated on ice for 20 min. 293 cells were disrupted by passage 15× through a 26 gauge needle and Jurkat T cells were disrupted by dounce homogenization in 2 ml using 15 strokes with a pestle B. Cell extracts (10–15 mg total protein/ml) were clarified by centrifugation at 16,000×g for 30 min, then the NaCl concentration was increased by 50 mM. Cytosolic fractions were used immediately or stored frozen at −80° C.
Caspase activity was assayed by release of either 7-amino-4-trifluoromethyl-coumarin (AFC) or p-nitroanilide (pNA) from benzylyoxycarbonyl-DEVD (SEQ ID NO: 2) or benzylyoxycarbonyl-YVAD (SEQ ID NO: 3) synthetic peptides using a Molecular Devices Spectromax 340 for AFC labeled peptides or Perkin/Elmer LS50B for pNA labeled peptides (see Example II; see, also, Zhou et al., supra, 1997). Cytosolic extracts from 293 cells or Jurkat T cells were used directly (negative control) or were treated with 1 μM cytochrome c and 1 mM dATP or with cytochrome c, dATP and 0.2 μM GST-XIAP. Additional control reactions were performed by substituting 2 μM GST-Bcl-2, GST-Bax, GST-NM23 or GST-CD40 cytosolic domain, or 5 μM His6-S5a protein for GST-XIAP. DEVD-pNA hydrolysis was measured at various times and multiple experiments were performed using several different GST-XIAP preparations.

caspase-3 = target: T1, caspase-3 (Homo sapiens, UniProt P42574); assay: GST pull-down binding to caspase-3; details: glutathione-Sepharose beads, immunoblot
T1 construct: to produce the 17–20 kDa mature, fully processed large subunit of the active caspase-3 enzyme; a smaller, fully processed, subunit of about 11 kDa; His6; made in house; host or cells: E. coli BL21(DE3)pLysS
T1 sequence (P42574 29-175 limits assumed): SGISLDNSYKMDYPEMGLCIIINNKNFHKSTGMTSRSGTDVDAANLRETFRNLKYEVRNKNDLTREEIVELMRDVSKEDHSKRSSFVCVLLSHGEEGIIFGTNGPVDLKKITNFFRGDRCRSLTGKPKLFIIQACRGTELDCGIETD
T1 sequence (P42574 176-277 limits assumed): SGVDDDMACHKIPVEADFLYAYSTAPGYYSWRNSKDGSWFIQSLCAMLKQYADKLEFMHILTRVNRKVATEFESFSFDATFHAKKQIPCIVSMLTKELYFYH
Procedure: (§1) Following incubation at 4° C. for 60 min, the beads were removed by centrifugation and washed twice with 100 vol 50 mM Tris (pH 7.5), 150 mM KCl, 2 mM DTT and 0.025% Triton-X100, then subjected to SDS-PAGE and immunoblot assay (see Example I.B.3).

caspase-7 = target: T2, caspase-7 (Homo sapiens, UniProt P55210); assay: GST pull-down binding to caspase-7; details: glutathione-Sepharose beads, immunoblot
T2 construct: Purified active caspase concentrations ranged from 0.1 nM to 10 nM; His6; made in house; host or cells: E. coli BL21(DE3)pLysS
T2 sequence (P55210 24-198 limits assumed): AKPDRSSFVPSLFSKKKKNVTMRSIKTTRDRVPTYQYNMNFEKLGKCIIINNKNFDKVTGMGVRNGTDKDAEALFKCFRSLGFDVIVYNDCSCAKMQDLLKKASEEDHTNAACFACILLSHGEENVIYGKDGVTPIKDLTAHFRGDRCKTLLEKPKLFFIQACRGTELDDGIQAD
T2 sequence (P55210 207-303 limits assumed): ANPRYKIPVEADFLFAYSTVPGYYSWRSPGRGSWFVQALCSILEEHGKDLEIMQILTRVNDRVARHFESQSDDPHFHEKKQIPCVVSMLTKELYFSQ
Procedure: as §1

pro-caspase-9 [3] = target: T3, pro-caspase-9 (Homo sapiens, UniProt P55211); assay: GST pull-down binding of in vitro translated pro-caspase-9; details: about 2 μM GST protein on glutathione-Sepharose
T3 construct: in vitro translated ^35S-labeled pro-caspase-9 and Apaf-1 were incubated individually or together; His6; made in house; host or cells: coupled in vitro transcription/translation in reticulocyte lysate (TNT kit, Promega)
T3 sequence (P55211 1-416): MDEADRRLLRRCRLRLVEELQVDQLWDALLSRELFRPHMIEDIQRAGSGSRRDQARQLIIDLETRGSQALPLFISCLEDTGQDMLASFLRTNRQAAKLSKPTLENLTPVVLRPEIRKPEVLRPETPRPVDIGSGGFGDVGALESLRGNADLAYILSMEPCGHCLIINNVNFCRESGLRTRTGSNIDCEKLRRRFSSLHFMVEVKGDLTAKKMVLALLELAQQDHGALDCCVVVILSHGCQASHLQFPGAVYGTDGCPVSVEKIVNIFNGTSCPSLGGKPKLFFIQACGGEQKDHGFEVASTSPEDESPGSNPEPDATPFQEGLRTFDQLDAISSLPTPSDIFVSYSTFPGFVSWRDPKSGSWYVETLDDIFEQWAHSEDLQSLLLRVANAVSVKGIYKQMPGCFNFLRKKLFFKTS
Procedure: After extensive washing, bound proteins were analyzed by SDS-PAGE and autoradiography. As a positive control, 1.5 μl of the in vitro translated reaction (IVT) was analyzed.

pro-caspase-9 [4] = assay: Co-immunoprecipitation of pro-caspase-9 with myc-tagged IAPs in 293T cells; type: binding, human; details: anti-myc immunoprecipitation, anti-FLAG blot
Procedure: Co-immunoprecipitations and immunoblot assays were performed as follows. […] Cells were collected 24–48 hrs later by centrifugation, washed in ice cold PBS and lysed for 20 minutes in lysis buffer (10 mM Hepes, 142 mM KCl, 5 mM MgCl2, 1 mM EGTA, 0.2% NP-40). Lysates were cleared by centrifugation at 16,000×g for 30 minutes. Myc-tagged IAP proteins were immunoprecipitated with 40 μl of anti-myc 9E10 antibody immobilized on Protein G-Sepharose (Santa Cruz) for 2 hrs. Immunoprecipitates were washed 3 times with lysis buffer, and bound proteins separated by SDS-PAGE and analyzed by immunoblotting using antibodies specific for the FLAG epitope (Kodak, Inc.), myc-epitope, or caspase-3.
Cell lysates were prepared 16 hr later for either (A) immunoblot analysis of caspase-3, or (B) DEVD-AFC. Immunoblot analysis of pro-caspase-3 was performed with lysates from cells induced to undergo apoptosis by overexpressing pro-caspase-9 in the absence or presence of the IAPs. For DEVD-AFC analysis, lysates were normalized for total protein content and assayed for hydrolysis of DEVD-AFC as described above. […] Lysates from the same cell (50 μg per lane) were also analyzed by immunoblotting using anti-FLAG and anti-myc antibodies to verify expression of […].

Substance	DEVD-pNA hydrolysis, ΔA405 after 15 min ([1]; 293 extracts + cytochrome c/dATP, GST-XIAP 0.2 μM, GST controls 2 μM, His6-S5a 5 μM, untreated ≈0.01)	reduction of cytochrome c/dATP-induced DEVD-pNA hydrolyzing activity ([1]; extracts of cells transfected with pcDNA3-XIAP versus control plasmid)	DEVD-pNA hydrolysis, ΔA405 after 15 min ([2]; untreated ≈0.02)	DEVD-pNA hydrolysis, ΔA405 after 20 min ([2]; untreated ≈0.025)	binding of caspase-3 (in words) (caspase-3)	binding of caspase-7 (in words) (caspase-7)	association with in vitro translated pro-caspase-9 (in words) (pro-caspase-9 [3])	co-immunoprecipitation of the zymogen form of caspase-9 (in words) (pro-caspase-9 [4])	DEVD hydrolysis in activated 293 cell cytosolic extracts (in words) ([1]; 3 μM, extracts activated 30 min with cytochrome c and dATP)
XIAP: X chromosome linked inhibitor of apoptosis protein (Genbank U32974), used mostly as recombinant GST fusion or expressed from plasmid	approximately the same as untreated control extracts	greater than 50%	≈ 0.025	≈ 0.03	Specific binding	Specific binding	associated with pro-caspase-9	co-immunoprecipitated	–
c-IAP-2: cellular IAP protein c-IAP-2/HIAP-1/hMIHC, recombinant GST fusion or myc-tagged	–	–	–	–	bound	bound	associated with pro-caspase-9	co-immunoprecipitated	inhibited DEVD hydrolysis
